The record followed here is ChEMBL document CHEMBL5370529, “Perspectives on the current antiviral developments towards RNA-dependent RNA polymerase (RdRp) and methyltransferase (MTase) domains of dengue virus non-structural protein 5 (DENV-NS5)” (Eur J Med Chem, 2023).

In brackets after ≈: the same amount, converted by molar mass.

Series [1] can be described thus: Cytotoxicity against hamster BHK-21 cells assessed as reduction in cell viability measured after 42 hrs by MTT assay. The series is classed as toxicity, cell-based, Mesocricetus auratus. A general note: Formazan colour is commonly taken as a measure of viable cells.
Series [2] in a line: Inhibition of West Nile virus recombinant N-terminal NS5-methyltransferase.
Series [3] is described as follows: Inhibition of DENV RNA-dependent RNA polymerase activity. More on the design: species or system Dengue virus.
Series [4] is described as follows: Inhibition of Dengue virus RNA-dependent RNA polymerase in human Huh-7 cells. It is filed as cell-based.
Another series relates to PBMC. Kind of series: Cytotoxicity against human PBMC cells assessed as reduction in cell viability measured after 48 hrs by Cell-titer glo luminescent assay. The series is classed as functional.
For series [5], the system named is A549. Kind of series: Cytotoxicity against human A549 cells assessed as reduction in cell viability measured after 48 hrs by Cell-titer glo luminescent assay. It is filed as functional.
For series [6], the system named is Huh-7. Kind of series: Cytotoxicity against human Huh-7 cells assessed as reduction in cell viability measured after 48 hrs by Cell-titer glo luminescent assay. It is filed as functional.
A short description of series [7]: Cytotoxicity against hamster BHK-21 cells assessed as reduction in cell viability measured after 48 hrs by Cell-titer glo luminescent assay. The series is classed as toxicity, cell-based, Mesocricetus auratus.
The next series has as its system dengue virus type 2. In words: Antiviral activity against Dengue virus 2 infected in African green monkey Vero cells assessed as suppression of viral replication. It is filed as functional, organism-based.
Series [8] in a line: Cytotoxicity against African green monkey Vero cells assessed as reduction in cell viability measured after 72 hrs by MTT assay. The series is classed as toxicity, cell-based. The following applies: chlorocebus sabaeus.
Series [9] deals with T1, Nonstructural protein 5 (Dengue virus, UniProt V5TFZ2). In words: Inhibition of DENV His-tagged recombinant NS5/RNA-dependent RNA polymerase.
The nature of series [10]: Inhibition of DENV-2 NS5 polymerase incubated for 1 hr by fluorescence based analysis. More on the design: species or system dengue virus type 2.
Series [11] can be described thus: Cytotoxicity against African green monkey Vero E6 cells assessed as reduction in cell viability measured after 96 hrs by MTT assay. The series is classed as toxicity, cell-based. The following applies: chlorocebus sabaeus, Vero E6 (Vero C1008) cells.
A short description of series [12]: Inhibition of DENV3 N-terminal 6-His-tagged RNA-dependent RNA polymerase expressed in Escherichia coli BL21. Details: species or system dengue virus type 3.
Series [13] can be described thus: Cytotoxicity against African green monkey Vero cells assessed as reduction in cell viability measured after 3 to 5 days by Cell titer-glo luminescent assay. The following applies: chlorocebus sabaeus, time 3-5 day. It is filed as toxicity, cell-based.
Series [14] in a line: Inhibition of DENV-4 full length NS5/RNA-dependent RNA polymerase. Details: species or system dengue virus type 4.
Series [15] is described as follows: Inhibition of DENV-3 RNA-dependent RNA polymerase expressed in Escherichia coli. More on the design: species or system dengue virus type 3.
The nature of series [16]: Cytotoxicity against hamster BHK-21 cells assessed as reduction in cell viability measured after 24 hrs by MTT assay. It is filed as toxicity, cell-based, Mesocricetus auratus.
A short description of series [17]: Cytotoxicity against asian tiger mosquito C6/36 cells assessed as reduction in cell viability measured after 24 hrs by MTT assay. The series is classed as toxicity, cell-based. The following applies: aedes albopictus.
Series [18] in a line: Inhibition of DENV-2 full length His-tagged RNA-dependent RNA polymerase expressed in Escherichia coli Rosetta cells BL21 (DE3) cells incubated for 2 hrs. More on the design: species or system dengue virus type 2.
In series [19] the test system is Huh-7. Kind of series: Cytotoxicity against human Huh-7 cells assessed as reduction in cell viability measured after 48 hrs by MTT assay. It is filed as functional.
For series [20], the system named is A549. Kind of series: Cytotoxicity against human A549 cells assessed as reduction in cell viability measured after 48 hrs by MTT assay. The series is classed as functional.
Series [21] can be described thus: Cytotoxicity against hamster BHK-21 cells assessed as cell growth inhibition measured after 48 hrs by MTT assay. The series is classed as toxicity, cell-based, Mesocricetus auratus.
Series [22] is described as follows: Cytotoxicity against human HEK293T cells assessed as reduction in cell viability measured after 48 hrs by MTT assay. The series is classed as toxicity, cell-based, HEK-293T.
Series [23] is described as follows: Inhibition of DENV RNA N7 methyltransferase. More on the design: species or system Dengue virus.
Series [24] is described as follows: Cytotoxicity against monkey LLC-MK2 cells assessed as reduction in cell viability measured after 48 hrs by MTT assay. It is filed as toxicity, cell-based, Macaca mulatta. The following applies: rhesus monkey.
Series [25] deals with T1, Nonstructural protein 5. Kind of series: Inhibition of DENV/NS5 RNA-dependent RNA polymerase.
Series [26] deals with Huh-7. Kind of series: Cytotoxicity against human Huh-7 cells assessed as reduction in cell viability measured after 48 hrs by Celltiter-glo assay. It is filed as functional. (Cellular ATP, detected with luciferase, serves as a proxy for viable cell number.)
Series [27] can be described thus: Inhibition of DENV-4 full length NS5/RNA-dependent RNA polymerase in Huh-7 cells. It is filed as cell-based, dengue virus type 4.
Series [28] concerns the target T1, Nonstructural protein 5. Kind of series: Inhibition of DENV C-terminal histidine-tagged NS5/RNA-dependent RNA polymerase.
Series [29] in a line: Inhibition of Dengue virus 3 nucleoside-2'O-methyltransferase. Details: species or system dengue virus type 3.
For series [30], the target named is T1, Nonstructural protein 5. Kind of series: Inhibition of Dengue virus NS5/RNA-dependent RNA polymerase.
Series [31] has as its system Huh-7. Kind of series: Cytotoxicity against human Huh-7 cells assessed as reduction in cell viability measured after 24 hrs by viral-Tox-glo assay. The series is classed as functional.

T1 sequence (V5TFZ2 whole entry): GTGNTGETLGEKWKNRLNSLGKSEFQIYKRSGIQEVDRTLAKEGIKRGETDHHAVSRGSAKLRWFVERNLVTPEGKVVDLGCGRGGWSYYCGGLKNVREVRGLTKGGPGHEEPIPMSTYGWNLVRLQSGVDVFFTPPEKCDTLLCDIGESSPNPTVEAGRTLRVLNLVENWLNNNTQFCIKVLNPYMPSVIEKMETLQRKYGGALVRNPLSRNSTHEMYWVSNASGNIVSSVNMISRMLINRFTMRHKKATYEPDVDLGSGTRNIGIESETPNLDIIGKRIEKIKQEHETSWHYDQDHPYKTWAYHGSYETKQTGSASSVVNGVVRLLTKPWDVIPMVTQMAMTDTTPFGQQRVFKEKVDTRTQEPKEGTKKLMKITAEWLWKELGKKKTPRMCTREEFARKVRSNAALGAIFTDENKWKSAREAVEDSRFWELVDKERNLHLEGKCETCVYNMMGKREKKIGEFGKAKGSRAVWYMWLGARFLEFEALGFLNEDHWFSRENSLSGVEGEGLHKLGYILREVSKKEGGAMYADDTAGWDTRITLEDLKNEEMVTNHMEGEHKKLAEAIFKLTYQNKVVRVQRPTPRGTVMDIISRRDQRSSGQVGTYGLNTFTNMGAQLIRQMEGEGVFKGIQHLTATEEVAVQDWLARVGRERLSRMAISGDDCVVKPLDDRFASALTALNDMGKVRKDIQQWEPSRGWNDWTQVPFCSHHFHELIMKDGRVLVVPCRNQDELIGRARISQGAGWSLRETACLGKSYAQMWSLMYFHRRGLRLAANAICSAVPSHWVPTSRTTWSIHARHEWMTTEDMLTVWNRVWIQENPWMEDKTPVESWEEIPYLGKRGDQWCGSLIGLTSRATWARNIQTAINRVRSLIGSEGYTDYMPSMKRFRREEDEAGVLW

For `CC1=C(Nc2c(C)cc(O)cc2O)C(=O)C=c2oc3c(c21)C(C)=C(Nc1c(C)cc(O)cc1O)C(=O)C=3`, in series [1], the CC50 (commonly the concentration giving 50% cytotoxicity) at 42 h was determined as 117 µM. Also, the IC50 (usually the concentration that inhibits the measured activity by half) in [2] is 5.6 µM.
On to `C#C[C@@]1(O)[C@H](OC(=O)C(C)C)[C@@H](COC(=O)C(C)C)O[C@H]1n1cc(C(N)=O)c2c(N)ncnc21`, for which the IC50 in series [3] is 0.1 µM.
Turning to `C#C[C@@]1(O)[C@H](O)[C@@H](CO)O[C@H]1n1ccc2c(N)ncnc21`, the IC50 in series [4] was determined as 0.31 µM. The CC50 in the series on PBMC, in the series on A549 [5] and in the series with Huh-7 [6] was above 100 µM each time. Besides, the CC50 at 48 h in series [7] is above 100 µM.
As for `CC(C)(O)[C@@H]1CC[C@](C)([C@H]2[C@@H](O)C[C@@]3(C)[C@@H]4C[C@H](O[C@@H]5O[C@H](CO)[C@@H](O)[C@H](O)[C@H]5O)[C@H]5C(C)(C)[C@@H](O[C@@H]6OC[C@@H](O)[C@H](O)[C@H]6O)CC[C@@]56C[C@@]46CC[C@]23C)O1`, the concentration for a half-maximal effect (EC50) (as a rule, the concentration giving half of the maximal effect) with dengue virus type 2 came out at 1.56 µg/mL (≈ 1.99 µM). Further, in [8], the CC50 at 72 h is above 1000 µg/mL.
For the compound `CC(=O)O[C@H]1[C@H](O[C@H]2CC[C@]34C[C@]35CC[C@]3(C)[C@@H]([C@@]6(C)CC[C@@H](C(C)(C)O)O6)[C@@H](O)C[C@@]3(C)[C@@H]5C[C@H](O[C@@H]3O[C@H](CO)[C@@H](O)[C@H](O)[C@H]3O)[C@H]4C2(C)C)OC[C@@H](O)[C@@H]1O`, the EC50 with dengue virus type 2 worked out at 1.56 µg/mL (≈ 1.89 µM). Further, the CC50 at 72 h in series [8] was above 1000 µg/mL.
As for `Nc1cc(C(F)(F)F)ccc1NC(=O)Nc1cccc(S(=O)(=O)Nc2ccc(C(=O)O)cc2)c1`, the IC50 at Nonstructural protein 5 [9] was 150 µM.
As for `Nc1cc(C(F)(F)F)ccc1NC(=O)Nc1ccc(S(=O)(=O)Nc2ccc(C(=O)O)cc2)cc1`, the IC50 on Nonstructural protein 5 [9] turned out to be 150 µM.
In series [10], `COc1cc(C)c(C(=O)NS(=O)(=O)c2cccc3cccnc23)cc1-c1ccc(C#CCO)s1` showed an IC50 of 1.9 µM.
For `O=C(N[C@@H](Cc1ccc(O)cc1)C(=O)O)c1cc(-c2ccccc2)c(=O)n2c1sc1ccc(OC3CCCCC3)cc12`, in series [11], the CC50 at 96 h was above 100 µM. Moreover, the IC50 in series [12] is 1.5 µM.
For the compound `CC(=O)Oc1ccc2oc(=O)sc2c1`, in [13], the CC50 amounted to 50 µM. In addition, the IC50 in series [14] was 445 µM; in [15], 287 µM.
Take `Cc1ccc(C2N(c3ccccc3)CC3=C(CC(C)(C)CC3=O)N2c2ccccc2)cc1` (stereo not given): the CC50 at 24 h in series [16] was found to be 10 µM.
In the case of `C=C1CC[C@@H]2[C@]3(C)COC(C)(C)O[C@@H]3CC[C@@]2(C)[C@@H]1C/C=C1/C(=O)OC[C@@H]1Oc1c(Cl)cc(Cl)c2ccc(C)nc12`, the half-maximal cytotoxic concentration (CC50) at 24 h in series [17] came to 15.6 µg/mL (≈ 26 µM).
`O=C1[C@@H]2Cc3ccccc3N2[C@@H](c2ccc(O)c(O)c2)N1Nc1ccc([N+](=O)[O-])cc1` came in with an IC50 in [18] of 2.3 µM.
On to `CCC(/C(C)=C/c1cc(OC)c(OC)cc1OC)c1cc(OC)c(OC)cc1OC` (stereo not given), for which the cytotoxic concentration (CC50) with Huh-7 [19] and with A549 [20] was above 80 µM in each case. Moreover, the 50% cytotoxic concentration (CC50) at 48 h in series [21] and in series [22] was above 80 µM throughout. Inhibition in [23] was half-maximal at 4.5 µM (IC50).
Regarding `O=C1[C@@H]2Cc3ccccc3N2[C@@H](c2ccco2)N1Nc1ccccc1`, the IC50 in series [18] turned out to be 2.1 µM.
Turning to `CC(C)(O)[C@H]1CC[C@@](C)([C@H]2[C@@H](O)C[C@]3(C)[C@H]4C[C@@H](O)[C@H]5C(C)(C)[C@H](O[C@H]6OC[C@H](O)[C@@H](O)[C@@H]6O[C@H]6O[C@@H](CO)[C@H](O)[C@@H](O)[C@@H]6O)CC[C@]56C[C@]46CC[C@@]23C)O1`, the EC50 in the series with dengue virus type 2 was determined as 1.56 µg/mL (≈ 1.99 µM). Also, the CC50 at 72 h in series [8] is above 1000 µg/mL.
Take `CC(=O)N[C@@H](C(=O)O)C(C)(C)SN=O`: the IC50 on Nonstructural protein 5 [9] was 150 µM. Also, in series [24], the CC50 at 48 h was found to be 200 µM.
Take `C=C1CC[C@@H]2[C@](C)(CO)[C@H](O)CC[C@@]2(C)[C@@H]1C/C=C1/C(=O)OC[C@H]1O` [ANDROGRAPHOLIDE]: in series [17], the CC50 at 24 h was 15.6 µg/mL (≈ 44.6 µM).
In turn, `O=c1c(O[C@@H]2O[C@@H](CO)[C@H](O)[C@H]2O)c(-c2ccc(O)c(O)c2)oc2cc(O)cc(O)c12` [AVICULARIN] showed an IC50 against Nonstructural protein 5 [25] of 1.7 µM.
Take `CC1=C(/C=C/C(C)=C/C=C/C(C)=C/C(=O)Nc2ccc(O)cc2)C(C)(C)CCC1` [FENRETINIDE]: in the series with Huh-7 [26], the CC50 was at most 10 µM. For the same compound, in series [27], it took 5 µM to reach half-maximal inhibition (IC50).
The compound `O=c1cc(-c2ccc(Oc3c(O)cc4oc(-c5ccc(O)cc5)cc(=O)c4c3O)cc2)oc2cc(O)cc(O)c12` [HINOKIFLAVONE] yielded an IC50 against Nonstructural protein 5 [28] of 0.26 µM.
`C[C@@H]1O[C@@H](Oc2c(-c3ccc(O)c(O)c3)oc3cc(O)cc(O)c3c2=O)[C@H](O)[C@H](O)[C@H]1O` [QUERCITRIN] showed a half-maximal inhibitory concentration (IC50) on Nonstructural protein 5 [25] of 2.1 µM.
Compound `O=c1cc(-c2ccc(O)c(-c3c(O)cc4oc(-c5ccc(O)cc5)cc(=O)c4c3O)c2)oc2cc(O)cc(O)c12` [ROBUSTAFLAVONE] returned an IC50 on Nonstructural protein 5 [28] of 0.33 µM.
As to `NC(=O)c1ncn([C@@H]2O[C@H](COP(=O)(O)OP(=O)(O)OP(=O)(O)O)[C@@H](O)[C@H]2O)n1` [RTP], the IC50 in [29] was found to be 100 µM.
`C[C@@H]1O[C@@H](OC[C@H]2O[C@@H](Oc3c(-c4ccc(O)c(O)c4)oc4cc(O)cc(O)c4c3=O)[C@H](O)[C@@H](O)[C@@H]2O)[C@H](O)[C@H](O)[C@H]1O` [RUTIN] came in with an IC50 against Nonstructural protein 5 [25] of 2.1 µM.
`CC(C)OC(=O)[C@H](C)N[P@](=O)(OC[C@H]1O[C@@H](n2ccc(=O)[nH]c2=O)[C@](C)(F)[C@@H]1O)Oc1ccccc1` [SOFOSBUVIR] displayed an IC50 against Nonstructural protein 5 [30] of 14.7 µM. In addition, the cytotoxic concentration (CC50) in the series on Huh-7 [31] was above 100 µM.
In turn, `O=c1c(O)c(-c2ccc(O[C@@H]3O[C@H](CO)[C@@H](O)[C@H](O)[C@H]3O)c(O)c2)oc2cc(O)cc(O)c12` [SPIRAEOSIDE] yielded a 50% inhibitory concentration (IC50) at Nonstructural protein 5 [25] of 1.9 µM.
